Patent US12084709B2, “Screening method” (Mars, Incorporated, priority 2018, dated 2024)

Test system: Porphyromonas macacae JN713359
Assay: mBB fluorescent C-S lyase / VSC production method with whole bacteria
Format: cell-based
Details: 0.12% CHX treatment; relative to control
Method: The C-S lyase activity was measured in order to quantitate VSC production by the bacteria. This was conducted by using monobromobiname, a fluorescent probe for thiol. The bacteria were washed and resuspended in Tris buffer (pH 8.5) at OD=1.0. The 250 μL reaction mix contained 4 mM benzylcysteine, 100 μM monobromobimane, 10 μM pyridoxal 5′-phosphate, 50 μL of the bacteria suspension and was made up to 250 μL with tris buffer (pH 8.5). The mix was incubated anaerobically for 45 minutes at 37° C. The C-S lyase activities were determined based on fluorescence at 490 nm (em) upon excitation at 385 nm (ex). All measurements were performed in biological duplicate with each repeated in technical triplicates, creating total of 6 data points per strain. Blank measurements (containing buffer instead of crude extract) were used to correct the values derived from the substrate. The standard curve was measured using Benzyl mercaptan at 8-128 μM. The protein concentration of the bacteria suspension was determined by means of a commercially available BCA kit in accordance with the manufacturer's method. The specific C-S lyase activity was calculated by dividing the increase in fluorescence equivalent to Benzyl mercaptan concentration by the total protein content of the suspension in mg and expressed as unit which was defined as “nM Benzyl mercaptan release/μg protein/minute”. […]

[H]/N=C(\N/C(=N/[H])NCCCCCCNC(=N)NC(=N)Nc1ccc(Cl)cc1)Nc1ccc(Cl)cc1 [CHX, Chlorhexidine, reference compound]
quantity of VSC produced as the control: 25%
